Consider one compound from article PMC12322656, “N‐ to C‐Glycoside Rearrangement of Uridine 5′‐Phosphate in Two Enzymatic Steps for the Production of Pseudouridine 5′‐Phosphate” (Biotechnology and Bioengineering, 2025).

Where a chain is given by its changes, count along the chain named.

Assay [1] has as its target T1, PpnN (purine/pyrimidine nucleotide 5'-phosphate nucleosidase; EC 3.2.2.10) (Escherichia coli, UniProt P0ADR8, R341A/Y347A).
T1 construct: subunit 51,794 Da (wild type; RY 51,440 Da); wild type tetramer, RY variant monomer
T1 sequence (P0ADR8 1-454 R341A/Y347A): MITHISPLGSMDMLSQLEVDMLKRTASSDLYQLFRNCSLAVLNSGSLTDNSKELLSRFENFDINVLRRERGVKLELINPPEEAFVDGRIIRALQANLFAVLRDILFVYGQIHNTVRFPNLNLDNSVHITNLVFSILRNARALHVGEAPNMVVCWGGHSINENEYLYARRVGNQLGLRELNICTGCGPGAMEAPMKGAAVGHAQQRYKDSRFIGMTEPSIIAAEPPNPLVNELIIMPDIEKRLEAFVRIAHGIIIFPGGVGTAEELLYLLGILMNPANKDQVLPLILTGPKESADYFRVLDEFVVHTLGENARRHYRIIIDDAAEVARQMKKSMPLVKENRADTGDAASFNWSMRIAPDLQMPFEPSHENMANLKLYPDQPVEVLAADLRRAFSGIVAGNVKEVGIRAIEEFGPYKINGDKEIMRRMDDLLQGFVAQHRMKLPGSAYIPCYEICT
The experiment in a line: initial-rate inhibition, HPLC of uracil release, nonlinear fit. To be noted: substrate UMP; 50 mM HEPES pH 7.5, 40 °C; competitive; RY variant, monomer. Type of assay: biochemical.

Assay [2] concerns the target T2, PpnN (purine/pyrimidine nucleotide 5'-phosphate nucleosidase; EC 3.2.2.10) (Escherichia coli, UniProt P0ADR8).
T2 construct: subunit 51,794 Da (wild type; RY 51,440 Da); wild type tetramer, RY variant monomer
T2 sequence (P0ADR8 1-454): T1 sequence (P0ADR8 1-454 R341A/Y347A) with A341R, A347Y
Described as above. The format is biochemical. The conditions noted are these: substrate UMP; 50 mM HEPES pH 7.5, 40 °C; competitive; wild type.

By Ki is commonly meant a measure of affinity in units of concentration, obtained from inhibition or displacement. Consider `O=P(O)(O)OC[C@H]1OC(O)[C@H](O)[C@@H]1O` (stereo partly drawn) [D-ribose 5-phosphate], for which the Ki is 1200 ± 100 µM in assay [1] and 100 µM in assay [2].
